Assay results: ChEMBL document CHEMBL4406876, “Design, synthesis and biological research of novel N-phenylbenzamide-4-methylamine acridine derivatives as potential topoisomerase I/II and apoptosis-inducing agents” (Bioorg Med Chem Lett, 2019)
pIC50: −log10 of the molar value. Activity calls are given as the source filed them. The rule behind the calls is not given here.

Legend:
[1] = tested on: CCRF-CEM; assay: Antiproliferative against human CCRF-CEM cells incubated for 72 hrs by MTT assay; format: functional, cell-based
[2] = tested on: K562; assay: Antiproliferative against human K562 cells incubated for 72 hrs by MTT assay; format: functional, cell-based; conditions: K562, 72 h
[3] = tested on: U-937; assay: Antiproliferative against human U937 cells incubated for 72 hrs by MTT assay; format: functional, cell-based; conditions: U-937, 72 h
[4] = target: DNA topoisomerase II (Homo sapiens) (UniProt P11388+Q02880); assay: Inhibition of DNA topoisomerase-2 (unknown origin) at 100 uM relative to control; format: protein assay
[5] = target: T1, DNA topoisomerase 1 (Homo sapiens) (UniProt P11387); assay: Inhibition of DNA topoisomerase-1 (unknown origin) at 100 uM relative to control
T1 sequence (whole entry): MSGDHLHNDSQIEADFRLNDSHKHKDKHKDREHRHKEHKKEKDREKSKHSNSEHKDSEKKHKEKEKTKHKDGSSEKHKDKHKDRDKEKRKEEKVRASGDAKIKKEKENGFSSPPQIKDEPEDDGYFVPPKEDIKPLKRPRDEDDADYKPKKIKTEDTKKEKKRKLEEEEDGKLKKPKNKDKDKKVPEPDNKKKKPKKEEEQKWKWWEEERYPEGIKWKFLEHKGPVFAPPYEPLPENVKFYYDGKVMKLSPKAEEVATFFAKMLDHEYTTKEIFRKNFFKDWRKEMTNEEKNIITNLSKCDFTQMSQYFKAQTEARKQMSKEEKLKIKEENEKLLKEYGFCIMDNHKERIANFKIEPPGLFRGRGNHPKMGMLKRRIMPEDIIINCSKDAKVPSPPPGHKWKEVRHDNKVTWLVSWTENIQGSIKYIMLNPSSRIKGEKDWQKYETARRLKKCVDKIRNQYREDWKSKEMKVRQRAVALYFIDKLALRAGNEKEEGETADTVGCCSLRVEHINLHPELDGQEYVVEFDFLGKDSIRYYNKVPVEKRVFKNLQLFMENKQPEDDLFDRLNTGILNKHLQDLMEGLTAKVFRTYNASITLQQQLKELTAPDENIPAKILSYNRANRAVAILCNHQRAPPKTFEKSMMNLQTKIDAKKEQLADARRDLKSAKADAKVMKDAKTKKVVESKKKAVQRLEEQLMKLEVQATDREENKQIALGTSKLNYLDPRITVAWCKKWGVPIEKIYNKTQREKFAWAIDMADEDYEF

[6] = tested on: CCRF-CEM; assay: Induction of apoptosis in human CCRF-CEM cells at 0.5 to 2 uM incubated for 48 hrs by Annexin V-FITC/PI staining based fluorescence based assay; format: functional, cell-based
[7] = tested on: CCRF-CEM; assay: Induction of DNA damage in human CCRF-CEM cells assessed as increase in gammaH2AX incubated for 48 hrs by Western blot analysis; format: functional, cell-based
[8] = tested on: CCRF-CEM; assay: Induction of apoptosis in human CCRF-CEM cells assessed as increase in early apoptotic cells at 0.5 uM incubated for 48 hrs by Annexin V-FITC/PI staining based fluorescence based assay; format: functional, cell-based
[9] = tested on: CCRF-CEM; assay: Induction of apoptosis in human CCRF-CEM cells assessed as increase in early apoptotic cells at 2 uM incubated for 48 hrs by Annexin V-FITC/PI staining based fluorescence based assay; format: functional, cell-based
[10] = tested on: CCRF-CEM; assay: Induction of apoptosis in human CCRF-CEM cells assessed as increase in late apoptotic cells incubated for 48 hrs by Annexin V-FITC/PI staining based fluorescence based assay; format: functional, cell-based
[11] = tested on: CCRF-CEM; assay: Induction of apoptosis in human CCRF-CEM cells assessed as increase in necrotic cells incubated for 48 hrs by Annexin V-FITC/PI staining based fluorescence based assay; format: functional, cell-based
[12] = tested on: CCRF-CEM; assay: Induction of apoptosis in human CCRF-CEM cells at 0.5 to 2 uM incubated for 48 hrs by Hoechst 33342/PI staining based fluorescence based assay; format: functional, cell-based

Row | Compound | pIC50 [1] | pIC50 [2] | pIC50 [3] | inhibition [4] | other results
1 | COc1ccc2nc3cc(Cl)ccc3c(Cl)c2c1 | < 5.00 | < 5.00 | < 5.00 |  | 
2 | COc1cc([C@@H]2c3cc4c(cc3[C@@H](O[C@@H]3O[C@@H]5CO[C@@H](C)O[C@H]5[C@H](O)[C@H]3O)[C@H]3COC(=O)[C@H]23)OCO4)cc(OC)c1O |  |  |  | 40.9% | 
3 | O=C(Nc1ccccc1)c1ccc(CNc2c3ccccc3nc3ccccc23)cc1 | 5.81 | 5.81 | 5.88 | 24% | inhibition [5]: 44.9%; Activity [6]: Active
4 | COc1ccc2nc3cc(Cl)ccc3c(NCc3ccc(C(=O)Nc4ccccc4)cc3)c2c1 | 5.89 | 5.63 | 5.74 |  | 
5 | COc1cccc2c(NCc3ccc(C(=O)Nc4ccccc4)cc3)c3ccccc3nc12 | 6.05 | 5.84 | 6.64 |  | 
6 | COc1ccc2nc3ccccc3c(NCc3ccc(C(=O)Nc4ccccc4)cc3)c2c1 | 6.09 | 5.91 | 6.48 | 17.8% | inhibition [5]: 7.2%; Activity [7]: Dose-dependent effect; Activity [8]: Active; Activity [9]: Active; Activity [10]: Dose-dependent effect; Activity [11]: Dose-dependent effect; Activity [12]: Active
7 | NCc1ccc(C(=O)Nc2ccccc2)cc1 | < 5.00 | < 5.00 | < 5.00 |  | 
8 | COc1ccc2c(NCc3ccc(C(=O)Nc4ccccc4)cc3)c3ccccc3nc2c1 | 6.05 | 5.88 | 5.85 |  | 
9 | COc1ccccc1NC(=O)c1ccc(CNc2c3ccccc3nc3ccccc23)cc1 | 5.89 | 6.04 | 5.83 |  | 
10 | COc1cc(NS(C)(=O)=O)ccc1Nc1c2ccccc2nc2ccccc12 [AMSACRINE] | 7.52 | 6.15 | 7.10 |  | 
